Test results reported in US5962502A, “Polyamidic acid derivatives with antigastrin activity, a method for their preparation, and their pharmaceutical use” (priority 1993, dated 1999).
Where “and” joins values, the source holds several entries; their conditions need not be identical. Equal entries are not always repeated.

How the values were obtained:
[1] = tested on: acid secretion induced by pentagastrin; test: Acid secretion induced by pentagastrin in the anaesthetized rat; format: in vivo; settings: for ED50: iv, 1 h, I.V. bolus, pentagastrin 30 mcg/kg/h, read-out: Activity (ID50), inhibition of the acid secretion induced by pentagastrin
Description: The activity of the compounds of the invention against gastric secretion performed by means of a mechanism with an antigastrin effect, was examined in vivo in anaesthetized rats with the use of male animals weighing about 200 g. Gastric secretion was stimulated with pentagastrin and Lai's method [Gut 5, (1964), 327-341 ] was used, with slight modification.
After tracheotomy, the oesophagus and duodenum were cannulated. A tepid solution (37° C.) of 0.25 mM NaOH was perfused and was passed through the stomach by means of a peristaltic pump at a constant flow-rate of 1 ml/minute. After stabilization for 20 minutes, the stimulant, dissolved in a physiological solution, was perfused for 120 minutes at a dose of 30 mcg/kg/h, in a volume of 0.95 ml/hour. After perfusion for 60 minutes (the basal stimulation), the product under test was administered intravenously (I.V.) as a bolus and perfusion of the stimulant was continued for a further 60 minutes. The acid secretion was recorded continuously as a function of time.
The activity of the product was evaluated as the percentage reduction of secreted acidity after the administration of the product, in comparison with the basal acidity measured during the first 60 minutes of collection in the presence of pentagastrin alone.
The antagonistic compounds tested were administered in various doses so that an ID50, that is, the dose (in mg/kg I.V.) which could inhibit the effect of pentagastrin by 50%, could be calculated.

[2] = molecular target: T1, gastrin receptors or type-B cholecystokinin (CCK-B) receptors (Oryctolagus cuniculus, UniProt P46627); test: Inhibition of the gastrin-induced increase of cytosolic calcium in rabbit gastric mucous-membrane cells (Fura 2); format: cell-based; settings: for Ratio IC50 Binding cortex / IC50 (gastric mucous cells): binding values taken from Table 3; for IC50, inhibition of the increase of cytosolic calcium: rabbit gastric mucous cells enriched in parietal cells, gastrin 5×10^-8
T1 construct: Rabbit gastric mucous-membrane cells were prepared by conventional techniques; endogenous in cells; host or cells: freshly isolated rabbit gastric mucosal cells, enriched by elutriation to about 70% parietal cells
T1 sequence (P46627 1-452): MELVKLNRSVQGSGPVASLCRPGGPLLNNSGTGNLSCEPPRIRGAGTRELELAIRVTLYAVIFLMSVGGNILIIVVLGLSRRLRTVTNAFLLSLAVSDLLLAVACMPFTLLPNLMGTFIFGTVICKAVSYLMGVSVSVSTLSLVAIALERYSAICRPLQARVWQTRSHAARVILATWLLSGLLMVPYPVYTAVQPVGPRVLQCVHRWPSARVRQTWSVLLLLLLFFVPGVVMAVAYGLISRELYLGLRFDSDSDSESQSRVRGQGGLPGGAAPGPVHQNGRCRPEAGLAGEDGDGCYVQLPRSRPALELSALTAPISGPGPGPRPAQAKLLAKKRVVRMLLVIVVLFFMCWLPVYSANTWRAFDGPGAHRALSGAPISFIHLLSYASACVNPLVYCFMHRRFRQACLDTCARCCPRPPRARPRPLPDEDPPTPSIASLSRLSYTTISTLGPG
Excerpt: The parietal cells of the gastric mucous membrane are responsible for the secretion of HCl. They have specific membrane receptors which can be activated by gastrin and which have been defined as gastrin receptors or type-B cholecystokinin (CCK-B) receptors. Since it has been observed that the activation of the CCK-B receptors by gastrin leads to an increase in the cytosolic levels of calcium ions, a technique involving the measurement of the increase in intracellular calcium induced by gastrin in the presence and in the absence of the compounds of the invention was used as an index of the antigastrin activity of the compounds. Rabbit gastric mucous-membrane cells were prepared by conventional techniques with the use of collagenase and pronase as digestive enzymes. The cellular preparation obtained by the enzymatic digestion was composed of parietal cells, zymogen cells and mucous-membrane cells. […] The cells were then washed and resuspended in a saline solution buffered with HEPES containing, in mM: […] Each measurement was carried out on cells in suspension (0.8×10^6 /ml) at a thermostatically-controlled temperature of 37° C. and with constant magnetic stirring. The fluorescence was recorded with the use of a spectrofluorometer. The operative wavelengths were 340/380 nm for excitation and 505 nm for emission. […] Biol. Chem. 260 (1985), 3440]. […] The results thus obtained for some compounds of the invention are given in Table 4, which also gives an index derived from the ratio between the peripheral antigastrin activity just described and the displacement activity found in the test on binding to the guinea-pig cortex receptors described above.

[3] = molecular target: T2, central CCK-B receptor (Cavia porcellus, UniProt H0VZC5); test: Inhibition of the binding of [3-H][N-methyl-N-leucine]CCK-8 to guinea-pig cortical membranes; settings: guinea-pig cortical membranes; for IC50: 150 minutes at 25° C.
T2 construct: Cerebral cortices of male white guinea-pigs were thus used; from tissue; host or cells: cerebral cortex membranes of male white guinea-pigs
T2 sequence (H0VZC5 1-426): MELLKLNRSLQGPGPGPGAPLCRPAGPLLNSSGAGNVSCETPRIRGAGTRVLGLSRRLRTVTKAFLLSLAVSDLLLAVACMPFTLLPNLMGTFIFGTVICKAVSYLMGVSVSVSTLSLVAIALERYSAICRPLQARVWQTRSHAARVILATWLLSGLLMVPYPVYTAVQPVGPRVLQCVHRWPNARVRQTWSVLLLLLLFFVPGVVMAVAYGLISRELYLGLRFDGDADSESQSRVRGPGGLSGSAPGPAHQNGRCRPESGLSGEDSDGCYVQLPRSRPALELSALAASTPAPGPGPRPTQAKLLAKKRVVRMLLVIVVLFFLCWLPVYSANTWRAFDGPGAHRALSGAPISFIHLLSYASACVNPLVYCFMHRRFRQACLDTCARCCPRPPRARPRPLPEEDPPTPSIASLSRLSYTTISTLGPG
Description: The ability of the compounds of the invention to interact with the central CCK-B receptor was evaluated with the use of non-sulphated [3-H] […] 225 (3) (1990), 1278-1286].
Cerebral cortices of male white guinea-pigs were thus used, according to the method mentioned above, so as to obtain a membrane content corresponding to about 300 mcg of proteins/ml. The membranes were incubated together with the radioactive tracer and the compounds under test for 150 minutes at 25° C. After the supernatant had been discarded, the radioactivity associated with the pellet was determined with a liquid scintillator. The specific binding was determined as the difference between the binding in the absence and in the presence of 5.10^-6 M CCK-8.

Row | Ratio IC50 Binding cortex / IC50 (gastric mucous cells) [2] | IC50, inhibition of the increase of cytosolic calcium [2] [nM] | inhibition of the binding of [N-methyl-N-leucine]CCK-8, result in words [3] | IC50 [3] [nM] | Compound | ED50 [1] | antigastrin activity relative to the diastereoisomer at the carbon atom (**) ([1]; pentagastrin-induced acid secretion)
1 | 1.7 | 60 | potent inhibitors | 100 | CN(C(=O)CC[C@@H](NC(=O)c1cc(Cl)cc(Cl)c1)C(=O)N1CCC2(CCCC2)CC1)[C@H](Cc1ccccc1)C(=O)O [Compound 12] | 13.6 mg/kg and 24.2 µmol/kg | –
2 | 1.9 | 330 | – | 640 | O=C(N[C@H](CCC(=O)N1CCCC(C(=O)O)C1)C(=O)N1CCC2(CCCC2)CC1)c1cc(Cl)cc(Cl)c1 (stereo partly drawn) [Compound 58, (R)-1-(piperidine-3-carboxy)-1-oxo-5-(8-azaspiro[4.5]decan-8-yl)-4-(3,5-dichloro-benzoylamino)-5-oxopentanoic acid] | 10.1 mg/kg and 18.3 µmol/kg | –
3 | 17.0 | 20 | – | 340 | O=C(O)C[C@H](Cc1ccccc1)NC(=O)CC[C@@H](NC(=O)c1cc(Cl)cc(Cl)c1)C(=O)N1CCC2(CCCC2)CC1 [Compound 14] | 9.7 mg/kg and 16.1 µmol/kg | about 1.5 times
